Assays:
[1] = tested on: Phaseolus vulgaris callus; details: Phaseolus vulgaris callus assay; Matsbuara 1990; cited from earlier work
[2] = tested on: Phaseolus lunatus callus; details: cited from earlier work; for MINIMUM CONCENTRATION / OPTIMUM CONCENTRATION: P. lunatus callus bioassay, Matsbuara 1990; for EC50: Phaseolus lunatus callus, Mok et al. 2005, read-out: concentration at which one half of the maximal growth is achieved
[3] = tested on: tobacco callus; details: tobacco callus bioassay, cited from earlier work; for MINIMUM CONCENTRATION / OPTIMUM CONCENTRATION: Matsubara 1990, Letham et al. 1983; for minimum concentrations required for activity compared to tZ and BA: fold worse
[4] = tested on: Pea test; details: used to make it equivalent to IAA; Pilet 1971; cited from earlier work
[5] = tested on: Tobacco callus/P. lunatus callus; test: trans-Zeatin equivalents based on Tobacco callus/P. lunatus callus bioassay; type: cell-based; details: for nM in tZ EQUIVALENTS IN KELPAK / nM in tZ E[…] KELPAK: contribution of the cytokinin in Kelpak
Description: It can be seen from Table 4 that there is significant variation in activity between the cytokinins. The minimum concentration required for an effect and the optimum concentration in the tobacco callus assay are much better for iP and tZ than the other cytokinins, with BA still quite good.
The activity of pT in this assay has not been reported.
Nevertheless, the response of plant growth to different cytokinins can vary depending on the specific circumstances.

[6] = contribution of the cytokinin in Composition 2
[7] = contribution of the cytokinin in Composition 1

C/C(=C\CNc1ncnc2c1ncn2[C@@H]1O[C@H](CO)[C@@H](O)[C@H]1O)CO (relative stereo) [trans-zeatin riboside (tZR), trans-zeatin riboside]
MINIMUM CONCENTRATION [1]: 0.03 µM
OPTIMUM CONCENTRATION [1]: 3 µM
MINIMUM CONCENTRATION [2]: 0.003 µM
OPTIMUM CONCENTRATION [2]: 0.1 µM
MINIMUM CONCENTRATION [3]: 0.003 µM
OPTIMUM CONCENTRATION [3]: 0.3 µM

CC(CCNc1ncnc2nc[nH]c12)CO[C@@H]1O[C@H](CO)[C@@H](O)[C@H](O)[C@H]1O (stereo partly drawn) [Dihydrozeatin-O-glucoside (DHZOG), Dihydrozeatin-O-glucoside]
MINIMUM CONCENTRATION [3]: 0.001 µM

COC(=O)C(=O)c1c[nH]c2ccccc12 [IGAMe, indole-3-glyoxylic acid methyl ester]
activity relative to IAA [4]: 1/28

c1ccc(CNc2ncnc3nc[nH]c23)cc1 [N6-benzyladenine (BA), N6-benzyladenine]
MINIMUM CONCENTRATION [1]: 0.001 µM
nM in tZ EQUIVALENTS IN 90° C. EXTRACT (COMPOSITION 2) [5, 6]: 0.0002 nM
nM in tZ EQUIVALENTS IN KELPAK [5]: 0.01 nM
MINIMUM CONCENTRATION [2]: 0.01 µM
OPTIMUM CONCENTRATION [2]: 3 µM
EC50 [2]: ~40 nM
MINIMUM CONCENTRATION [3]: 0.0008 µM
OPTIMUM CONCENTRATION [3]: 0.07 µM

OC[C@H]1O[C@@H](n2cnc3c(NCc4ccccc4)ncnc32)[C@H](O)[C@@H]1O [N6-benzyladenosine (BAR), N6-benzyladenosine]
nM in tZ EQUIVALENTS IN KELPAK [5]: 0.0001 nM
MINIMUM CONCENTRATION [3]: 0.02 µM
OPTIMUM CONCENTRATION [3]: 1 µM

C/C(=C/CNc1ncnc2nc[nH]c12)CO [cis-zeatin (cZ), cis-zeatin]
MINIMUM CONCENTRATION [1]: 0.01 µM
OPTIMUM CONCENTRATION [1]: 3 µM
nM in tZ E[…] ROOM T[…] (COMPOSITION 1) [5, 7]: 0.03 nM
nM in tZ E[…] 90° C. EXTRACT (COMPOSITION 2) [5, 6]: 0.03 nM
nM in tZ E[…] KELPAK [5]: 0.00008 nM
MINIMUM CONCENTRATION [2]: 0.03 µM
OPTIMUM CONCENTRATION [2]: 3 µM
EC50 [2]: ~300 nM
MINIMUM CONCENTRATION [3]: 0.03 µM
OPTIMUM CONCENTRATION [3]: 0.5 µM

CC(CO)CCNc1ncnc2nc[nH]c12 (stereo not drawn) [dihydrozeatin (DHZ), dihydrozeatin]
MINIMUM CONCENTRATION [3]: 0.01 µM
OPTIMUM CONCENTRATION [3]: 0.4 µM

CC(CO)CCNc1ncnc2c1ncn2[C@@H]1O[C@H](CO)[C@@H](O)[C@H]1O (stereo partly drawn) [dihydrozeatin riboside (DHZR), dihydrozeatin riboside]
nM in tZ EQUIVALENTS IN KELPAK [5]: 0.00001 nM
MINIMUM CONCENTRATION [3]: 0.01 µM
OPTIMUM CONCENTRATION [3]: 4 µM

CC(CCNc1ncnc2c1ncn2C1OC(CO)C(O)C1O)COC1OC(CO)C(O)C(O)C1O (stereo not drawn) [dihydrozeatin riboside-O-glucoside]
nM in tZ EQUIVALENTS IN KELPAK [5]: 0.00003 nM
MINIMUM CONCENTRATION [3]: 0.002 µM

c1coc(CNc2ncnc3[nH]cnc23)c1 [kinetin (K), kinetin]
MINIMUM CONCENTRATION [3]: 0.001 µM
OPTIMUM CONCENTRATION [3]: 0.1 µM

Oc1cccc(CNc2ncnc3nc[nH]c23)c1 [mT, meta-topolin]
EC50 [2]: ~50 nM
optimum concentration compared to tZ ([3]; Holub et al. 1998): similar
minimum concentrations required for activity compared to tZ and BA ([3]; Holub et al. 1998): similar

OC[C@H]1O[C@@H](n2cnc3c(NCc4ccccc4O)ncnc32)[C@H](O)[C@@H]1O [oTR, ortho-topolin riboside]
minimum concentrations required for activity compared to tZ and BA ([3]; Holub et al. 1998): 100 fold

Oc1ccccc1CNc1ncnc2nc[nH]c12 [ortho-topolin (oT), ortho-topolin]
nM in tZ EQUIVALENTS IN KELPAK [5]: 0.002 nM
EC50 [2]: ~1000 nM
minimum concentrations required for activity compared to tZ and BA ([3]; Holub et al. 1998): 100 fold

Oc1ccc(CNc2ncnc3nc[nH]c23)cc1 [para-topolin (pT), para-topolin]
nM in tZ EQUIVALENTS IN ROOM TEMPERATURE EXTRACT (COMPOSITION 1) [5, 7]: 0.0001 nM
nM in tZ EQUIVALENTS IN 90° C. EXTRACT (COMPOSITION 2) [5, 6]: 0.09 nM
EC50 [2]: ~30000 nM

C/C(=C\CNc1ncnc2nc[nH]c12)CO [trans-zeatin (tZ), trans-zeatin]
MINIMUM CONCENTRATION [1]: 0.0301 µM
OPTIMUM CONCENTRATION [1]: 3 µM
nM in tZ E[…] KELPAK [5]: 0.29 nM
MINIMUM CONCENTRATION [2]: 0.001 µM
OPTIMUM CONCENTRATION [2]: 0.3 µM
EC50 [2]: ~20 nM
MINIMUM CONCENTRATION [3]: 0.0001 µM
OPTIMUM CONCENTRATION [3]: 0.004 to 0.05 µM

cis-zeatin riboside [cis-zeatin riboside (cZR)]
MINIMUM CONCENTRATION [3]: 0.03 µM
OPTIMUM CONCENTRATION [3]: 0.3 µM

trans-zeatin riboside-O-glucoside
nM in tZ E[…] KELPAK [5]: 0.0005 nM
MINIMUM CONCENTRATION [3]: 0.003 µM

trans-zeatin-9-glucoside [trans-zeatin-9-glucoside (tZ9G)]
MINIMUM CONCENTRATION [3]: >50 µM

trans-zeatin-O-glucoside [trans-zeatin-O-glucoside (tZOG)]
nM in tZ E[…] KELPAK [5]: 3.6 nM
MINIMUM CONCENTRATION [3]: 0.001 µM
